Activity calls are given as the source filed them. No rule for the calls is given here. Where only a bound is given, the exact number is not on record here.

The target in the experiment is Influenza A virus M2 proton channel (A/TW/4845/1999 H1N1). Nature of the experiment: NMR binding screen, influenza A virus M2 proton channel, Kd (AID 1549). As to conditions: M2 protein.
For the compound `O=c1ccn([C@@H]2O[C@H](COP(=O)(O)OP(=O)(O)OP(=O)(O)O)[C@@H](O)[C@H]2O)c(=O)[nH]1`, the Kd (as a rule, the concentration at which binding is half-saturated) is > 4 mM (inactive).

With `Cc1cc(N)ccc1NC(=O)c1ccco1`, the Kd is > 4 mM (inactive).

Consider `CC(=O)O[C@@H]1C=C[C@@]2(C)C(C[C@@H](OC(C)=O)[C@@]3(C)C4=CC(=O)O[C@@H](c5ccoc5)[C@]4(C)CCC23)C1(C)C` (stereo not given in full), for which the Kd is > 4 mM (inactive).

For `Cc1cc(C)cc(C(=O)n2cnnc2N)c1`, the Kd was > 4 mM (inactive).

For `COC(=O)C1Cc2ccccc2N1` (stereo not given), the Kd was > 4 mM (inactive).

On to `Nc1nc(-c2nc3ccccc3[nH]2)cs1`, for which the Kd is > 4 mM (inactive).

For `O=C(c1ncc[nH]1)c1ccccc1C(=O)N1CCOCC1`, the Kd is > 4 mM (inactive).

`Nc1cc(N)nc(SCc2cccnc2)n1`: the Kd was > 4 mM (inactive).

In the case of `CC(=O)Nc1ccc(C)cc1NC(C)=O`, the Kd is > 4 mM (inactive).

Regarding `CC(=O)N1CC2(C)CN(C(C)=O)CC(C)(C1)C2`, the Kd is > 4 mM (inactive).

As for `NCc1cccc(-n2cccc2)c1`, the Kd was > 4 mM (inactive).

For the compound `ON=c1ccc2nc3ccccc3nc2cc1`, the Kd is > 4 mM (inactive).

As to `COc1cnn(-c2ccccc2)c(=O)c1N(C)C`, the Kd is > 4 mM (inactive).

`O=C(O)CC1C(=O)NCCN1Cc1ccccc1` (stereo not given): the Kd is > 4 mM (inactive).

In the case of `OCCNc1nc2ccc(Cl)cc2[nH]1`, the Kd was > 4 mM (inactive).

Consider `CC(=O)Nc1cccc(-c2nnc(-c3ccccc3)o2)c1`, for which the Kd was > 4 mM (inactive).

Turning to `COC(=O)C1=CCCN(C)C1`, the Kd was > 4 mM (inactive).

Turning to `Cc1c(N=Cc2ccc[nH]2)c(=O)n(-c2ccccc2)n1C`, the Kd is > 4 mM (inactive).

On to `CCOC(=O)c1c(C)nc2c(C#N)cnn2c1C`, for which the Kd is > 4 mM (inactive).

With `Cc1cc(NC(=O)c2c(F)c(F)c(F)c(F)c2F)no1`, the Kd was > 4 mM (inactive).

As for `Cc1cc(C(=O)N2CCN(c3ncccn3)CC2)cs1`, the Kd was > 4 mM (inactive).

For `Oc1cc2c(cc1O)C1c3ccc(O)c(O)c3OCC1(O)C2` (stereo not given), the Kd was > 4 mM (inactive).

Turning to `NC(=O)c1cc(N)ccc1N1CCCCC1`, the Kd was > 4 mM (inactive).

With `Cc1cc(C)n(-c2nc(N)cc(=O)[nH]2)n1`, the Kd is > 4 mM (inactive).

`CN1CCn2c1nc(N1CCOCC1)nc2=O`: the Kd was > 4 mM (inactive).

For the compound `CC(C)(C(N)=O)/[N+]([O-])=C\c1ccccc1`, the Kd is > 4 mM (inactive).

As for `O=C(O)c1ccc(N2CCOCC2)nc1`, the Kd was > 4 mM (inactive).

Take `CC1=NN2C(=N)CC(=O)N=C2S1`: the Kd is > 4 mM (inactive).

Consider `COCC(=O)OCn1nnc2ccccc2c1=O`, for which the Kd was > 4 mM (inactive).

For the compound `O=C1CSC2=NCCCN12`, the Kd was > 4 mM (inactive).

In the case of `CN1C(=O)Cc2cc(S(N)(=O)=O)ccc21`, the Kd is > 4 mM (inactive).

As to `O=C1CSC(=Nc2ccc(O)cc2)N1`, the Kd was > 4 mM (inactive).

In the case of `CCOC(=O)c1csc(N)n1`, the Kd is > 4 mM (inactive).

Consider `O=C(Nn1c(=S)[nH]c2ccccc2c1=O)c1ccncc1`, for which the Kd is > 4 mM (inactive).

For the compound `CC(C)(CO)NC(=O)c1ccccc1F`, the Kd was > 4 mM (inactive).

Consider `O=C1C2C3CCC(O3)C2C(=O)N1c1cccc(F)c1` (stereo not given), for which the Kd was > 4 mM (inactive).

As for `Cn1c(=O)n(-c2cccc(Cl)c2)c(=O)n1C`, the Kd was > 4 mM (inactive).

For the compound `CC1CC[C@]2(NC1)O[C@H]1CC3C4CC[C@H]5C[C@@H](O)CC[C@]5(C)C4CC[C@]3(C)[C@H]1[C@@H]2C` (stereo not given in full), the Kd was > 4 mM (inactive).

Take `CN1C(CC(=O)c2ccccc2)CCCC1CC(O)c1ccccc1` (stereo not given): the Kd was > 4 mM (inactive).

For `O=c1c2ccccc2oc2ccc(O)cc12`, the Kd was > 4 mM (inactive).

`Cc1ccnc(NS(=O)(=O)c2ccccc2)n1`: the Kd was > 4 mM (inactive).

As for `Cc1cc(NC(=O)c2ccccc2C(=O)O)no1`, the Kd was > 4 mM (inactive).

Consider `O=C1CCCN1c1ccc(S(=O)O)cc1`, for which the Kd was > 4 mM (inactive).

For `COc1ccc(CN2CCOCC2)c(C)c1C`, the Kd is > 4 mM (inactive).

As for `C(=N\c1ncn[nH]1)/c1cccs1`, the Kd is > 4 mM (inactive).

On to `COc1cccc(=O)c2c(C)n(C)c(C)c12`, for which the Kd is > 4 mM (inactive).

On to `Cc1nc2ccccc2c(=O)[nH]1`, for which the Kd was > 4 mM (inactive).

Take `CSc1nc(C)c(Oc2ccccc2)c(=O)n1C`: the Kd was > 4 mM (inactive).

Turning to `COc1ccc(/C=C2/N=C(N)SC2=O)cc1`, the Kd was > 4 mM (inactive).

For the compound `O=C(NN1CCOCC1)c1cccs1`, the Kd is > 4 mM (inactive).

Take `O=C(CSc1nnc2ccccn12)N1CCOCC1`: the Kd was > 4 mM (inactive).

Regarding `NC(=O)CSc1ccc2nnc(-c3cccs3)n2n1`, the Kd was > 4 mM (inactive).

For the compound `COc1ccc(S(=O)(=O)Nc2ccccn2)c(C)c1C`, the Kd is > 4 mM (inactive).

With `c1csc(-c2nn[nH]n2)c1`, the Kd is > 4 mM (inactive).

`Cc1ccc(F)cc1NC(=O)c1ccc2c(c1)OCO2`: the Kd was > 4 mM (inactive).

Consider `O=C1NCC(=O)N2CCc3ccccc3C12` (stereo not given), for which the Kd is > 4 mM (inactive).

As to `CC(CCC(=O)O)[C@H]1CCC2C3CC[C@@H]4C[C@H](O)CC[C@]4(C)C3CC[C@@]21C` (stereo not given in full), the Kd was > 4 mM (inactive).

For `CSc1nc2cc(F)c(F)cc2n1C`, the Kd is > 4 mM (inactive).

For `Cc1noc(C)c1C(=O)Nc1cccnc1`, the Kd was > 4 mM (inactive).

For the compound `Cc1nnc(NCCO)[nH]c1=O`, the Kd is > 4 mM (inactive).

Turning to `Cc1nc(-c2ccccc2)ncc1CO`, the Kd is > 4 mM (inactive).

Take `NC(=O)C1CCCN1S(=O)(=O)c1ccc(F)cc1` (stereo not given): the Kd is > 4 mM (inactive).

Take `Cc1cc(/C=N/O)nc(=O)[nH]1`: the Kd was > 4 mM (inactive).

With `C=C1C2=CC(=O)O[C@@H](c3ccoc3)[C@]2(C)CCC1[C@@]1(C)C=CC(=O)C(C)(C)[C@@H]1CC(=O)OC` (stereo not given in full), the Kd was > 4 mM (inactive).

In the case of `CN1CCN(C(=O)C2CCCNC2)CC1` (stereo not given), the Kd is > 4 mM (inactive).

In the case of `Cc1cc(C)n(C/C=C/Cn2nc(C)cc2C)n1`, the Kd is > 4 mM (inactive).

With `CN1CCN(c2nc3c(c(=O)[nH]2)CCCC3)CC1`, the Kd was > 4 mM (inactive).

Turning to `Cc1onc(-c2c(Cl)cccc2Cl)c1C(N)=O`, the Kd is > 4 mM (inactive).

`COC(=O)c1scc(C)c1N`: the Kd is > 4 mM (inactive).

With `Cc1nc(NCc2ccco2)nc2c1C(=O)CC(C)C2` (stereo not given), the Kd is > 4 mM (inactive).

As to `Cc1ccc(C)n1/N=C1\NC(=O)CS1`, the Kd is > 4 mM (inactive).

Take `CN1CCC(NC(=O)c2cnccn2)CC1`: the Kd is > 4 mM (inactive).

`NC(=O)CSc1ncnc2ccccc12`: the Kd was > 4 mM (inactive).

With `O=c1ccc2ccccc2o1`, the Kd is > 4 mM (inactive).

As for `Nn1cnn2c(SCc3ccccc3)nnc12`, the Kd was > 4 mM (inactive).

For `Cn1nnc2cc(C(=O)NC3CCCCC3)ccc21`, the Kd was > 4 mM (inactive).

For the compound `Cc1nc(-c2ccccc2)sc1CN`, the Kd is > 4 mM (inactive).

Consider `CC(=O)NN1C(=O)/C(=C\c2ccc(O)cc2)SC1=S`, for which the Kd is > 4 mM (inactive).

For the compound `CC(=O)NC1=C(N(C)C)C(=O)c2ccccc2C1=O`, the Kd was > 4 mM (inactive).

Regarding `CCCCCCCCCCCCCCC(C(=O)O)C(O)(CC(=O)OC)C(=O)O` (stereo not given), the Kd is > 4 mM (inactive).

As for `NC(=O)c1ccc2c(c1)OCO2`, the Kd was > 4 mM (inactive).

Take `O=C1CCC(c2cccs2)=NN1`: the Kd is > 4 mM (inactive).

On to `O=C(c1ccccc1)c1ccccc1C(=O)N1CCOCC1`, for which the Kd was > 4 mM (inactive).

For the compound `CCOC(=O)c1cc2ccccc2oc1=O`, the Kd is > 4 mM (inactive).

Consider `COc1ccc(C[C@H]2NC[C@H](O)[C@H]2OC(C)=O)cc1`, for which the Kd was > 4 mM (inactive).

Regarding `CC(O)c1nc2ccccc2[nH]1` (stereo not given), the Kd is > 4 mM (inactive).

Regarding `CCOC(=O)Nc1ccc2c(C)cc(=O)oc2c1`, the Kd is > 4 mM (inactive).

As for `Fc1cc2nccnc2cc1N1CCSCC1`, the Kd is > 4 mM (inactive).

As to `NC(=O)C1CCN(C(=S)c2cccs2)CC1`, the Kd was > 4 mM (inactive).

Turning to `CC(C)NC1CS(=O)(=O)CC1O` (stereo not given), the Kd was > 4 mM (inactive).

Take `O=c1[nH]cc(N2CCCCC2)c(=O)[nH]1`: the Kd is > 4 mM (inactive).

For `Cn1cnc2c(cnn2-c2ccccc2)c1=O`, the Kd was > 4 mM (inactive).

Turning to `CCC[C@@H]1CCCCN1`, the Kd was > 4 mM (inactive).

Consider `COc1cc2[nH]c(=S)n(C)c(=O)c2cc1OC`, for which the Kd is > 4 mM (inactive).

Regarding `O=C(CCc1ccc(O)cc1)c1c(O)cc(O)cc1O[C@@H]1O[C@H](CO)[C@@H](O)[C@H](O)[C@H]1O`, the Kd is > 4 mM (inactive).

`CNc1nc(N)c(C(=O)C(C)(C)C)s1`: the Kd is > 4 mM (inactive).

Consider `C[C@H]1[C@H]2CCC3C4CC=C5C[C@@H](N(C)C)CC[C@]5(C)C4CC[C@@]32CN1C` (stereo not given in full), for which the Kd is > 4 mM (inactive).

For `Cc1cccc(N2C(=O)CCC2=O)n1`, the Kd was > 4 mM (inactive).

`C[C@@H]1CC[C@]2(C(=O)O)CC[C@]3(C)C(=CCC4[C@@]5(C)CC[C@H](O)C(C)(C)C5CC[C@]43C)C2[C@H]1C` (stereo not given in full): the Kd was > 4 mM (inactive).

Take `O=C(Nc1ccccc1[N+](=O)[O-])c1ccc(=O)[nH]n1`: the Kd was > 4 mM (inactive).

`O=C(O)C1CNc2ccccc2O1` (stereo not given): the Kd is > 4 mM (inactive).

In the case of `CCCn1cnn2c(=O)cc(C)nc12`, the Kd is > 4 mM (inactive).

Take `c1coc(CNc2nc(-c3ccncc3)cs2)c1`: the Kd was > 4 mM (inactive).

Regarding `CC(=O)Nc1cccs1`, the Kd was > 4 mM (inactive).

For `Oc1cccc2[nH]ccc12`, the Kd is > 4 mM (inactive).

(Values after PubChem BioAssay AID1549 (Sanford-Burnham Center for Chemical Genomics, 2009).)
